Data from patent US11969402B2, “Compositions and methods for skin rejuvenation” (THE JOHNS HOPKINS UNIVERSITY, priority 2019, dated 2024).

Key:
[1] = tested on: keratinocytes of Tlr3−/− mice; assay: Western blot of stem cell markers in keratinocytes of Tlr3-/- mice; assay type: cell-based, mouse; details: keratinocytes or whole skin from Tlr3−/− mice
Protocol: Adult keratinocytes isolation and cultures. For human keratinocytes, 3-mm skin biopsies were taken from areas of the occipital scalp through above IRB protocols using enzyme digestion method as described in the literature^30,31. For mouse keratinocytes, tails of adult mice were used and followed by the same protocol of human keratinocytes. Briefly, the skin fragments were incubated in 0.4% dispase II solution overnight at 4° C., allowing separation of epidermis from dermis. Then epidermis was incubated with 0.25% trypsin-EDTA (Lonza, Walkersville, MD) to isolate keratinocytes for 5 min at 37° C. Adult keratinocytes were maintained in KGM including defined growth factors (KGM-GOLD Bullet kit, #192060) (Lonza) and supplemented with 10 μM of ROCK inhibitor (Y-27632) (Cayman Chemical, #10005583) until use^32. For all in vitro experiments, primary keratinocytes were passaged at least once to eliminate contaminating other cells isolated from epidermis and used at passage 2-4 for human and passage 1-2 for mouse keratinocytes.
BMS493 treatment. BMS493 pan-RARs antagonist (1 μM) was pre-treated into keratinocytes for an hour and cells were incubated with RA (0.1 μM and 0.5 μM for human and mouse keratinocytes, respectively) or Poly (I:C) (0.1 μg per ml for both human and mouse keratinocytes) for 48 hrs. At the end of the experiment, cells were harvested for RNA and protein extraction to do further analysis including qRT-PCR and western blot.
Western blot analysis. Human and mouse keratinocytes were disrupted in M-PER lysis buffer (Thermo Fisher Scientific, #78501) containing protease inhibitors (Thermo Fisher Scientific, #87786) using ultrasonic homogenizer (20% power with 5 times every 2 seconds) to extract proteins. Then, protein concentrations were determined by BCA method (Thermo Fisher Scientific, #23225). Western blot procedures were followed by the protocol of NuPAGE system (Thermo Fisher Scientific). […] The signal intensity of protein was quantified using Image Lab software (Bio-Rad). […]

[2] = tested on: human scalp keratinocytes; assay: Retinoid levels (RA by LC-MS/MS, ROL and RE by HPLC-UV) in keratinocytes; assay type: cell-based
Text: Small interference RNA (siRNA) transfection. Human ALDH1A2 (Santa Cruz Biotechnology, sc41443), ALDH1A3 (Santa Cruz Biotechnology, sc43611), TLR3 (Dharmacon, M-007745-00), TRIF (Santa Cruz Biotechnology, sc106845), IRF3 (Santa Cruz Biotechnology, sc35710), NF-κB (Santa Cruz Biotechnology, sc29410) and non-targeting control (scramble) siRNAs (Santa Cruz Biotechnology, sc37007 & Dharmacon, D-001210) were commercially provided. Human scalp keratinocytes (3×10^5 cells per well) in 12-well plates were transfected with 20 nM of siRNAs using Lipofectamine® RNAiMAX (Thermo Fisher Scientific, #13778150) following the manufacturer's directions. Poly (I:C) (0.1 μg per ml) was applied to transfected cells and incubated for 48 hrs. At the end of transfection period, cells were harvested to isolate protein to perform qRT-PCR, western blot, and RA mass spectrometry.
IL6 treatment. Recombinant human interleukin 6 (rhIL6) (R&D system; 206-IL-010) was treated into human scalp keratinocytes with dose-dependent manners (0, 10, 50, and 100 ng per ml) for 2 days. Cells were harvested and lysates were used for RA measurement.
Determination of Retinoid Levels. For in vitro samples, human scalp keratinocytes were incubated with 0.5 μg per ml of Poly (I:C) for 48 hrs or siRNAs-transfected cells were incubated with 0.1 μg per ml of Poly (I:C) for 48 hrs. For in vivo samples, skin was analyzed from wild-type and Tlr3^−/− unwounded and wounded skin where wound regions (center and edge area) were cut by scalpel. Human skin was analyzed for retinoids with and without CO2 laser treatment as described. All samples were frozen at collection and stored at −80° C. until extraction. For in vitro experiments, media and cell pellets were analyzed separately. For in vivo experiments, tissues were homogenized in saline. Extraction of retinoids was performed under yellow lights using a two-step liquid-liquid extraction that has been described in detail previously using 4,4-dimethyl-RA as an internal standard for RA and retinyl acetate as an internal standard for retinol and total retinyl ester^43-46. For the extraction of retinoids, 1 to 3 ml of 0.025 M KOH in ethanol was added to tissue homogenates (in vivo) or cell culture (in vitro) samples. Then 10 ml hexane (for in vivo tissue sample) or 5 ml hexane (for in vitro cell culture sample) was added to the aqueous ethanol phase. The samples were vortexed and centrifuged for 1 to 3 min at 1000 rpm in a Dynac centrifuge (Becton Dickinson) to facilitate phase separation and pellet precipitated protein. The hexane (top) phase containing nonpolar retinoids (ROL and RE) was removed. 4 M HCl (60-180 μl) was added to the remaining aqueous ethanol phase, samples were vortexed, and then polar retinoids (RA) were removed by extraction with a second 5-10 ml aliquot of hexane as described above. […]
Levels of RA were determined by liquid chromatography-multistage tandem mass spectrometry (LC-MRM^3) which is an LC-MS/MS method utilizing two distinct fragmentation events for enhanced selectivity^43. RA was measured using a Shimadzu Prominence UFLC XR liquid chromatography system (Shimadzu, Columbia, MD) coupled to an AB Sciex 5500 or 6500+ QTRAP hybrid triple quadrupole mass spectrometer (AB Sciex, Framingham, MA) using atmospheric pressure chemical ionization (APCI) operated in positive ion mode as previously described^43. […]

Row | Molecule | levels of Krt19, Krt15 and activated β-catenin protein [1] | Poly (I:C)-induced RA accumulation ([2]; TLR3 siRNA-transfected human keratinocytes, 0.1 μg per ml, 48 hrs) | RA synthesis ([2]; human keratinocytes transfected with MDA5- or RIG-I-siRNA) | retinol (ROL) and retinyl ester (RE) quantities ([2]; human keratinocytes treated with Poly (I:C)) | RA abundance ([2]; human keratinocytes, cell lysates and culture media, 0.5 μg per ml, 48 hrs)
1 | CC1=C(/C=C/C(C)=C/C=C/C(C)=C/C(=O)O)C(C)(C)CCC1 [RA, all-trans-retinoic acid] | increased |  |  |  | 
2 | Polyinosinic-polycytidylic acid [Poly (I:C)] |  | dependent on TLR3 | still induce RA synthesis | not modified | markedly increased
